ChEMBL document CHEMBL3627598, “Synthesis of novel compounds containing morpholine and 5(4H)-oxazolone rings as potent tyrosinase inhibitors” (Bioorg Med Chem, 2015)

Legend:
[1] = target: T1, Tyrosinase (Mus musculus) (UniProt P11344); assay: Inhibition of tyrosinase in mouse B16F10 cells assessed as reduction of melanin production at 20 ug/ml incubated for 72 hrs; assay type: cell-based; conditions: B16-F10
T1 sequence (whole entry): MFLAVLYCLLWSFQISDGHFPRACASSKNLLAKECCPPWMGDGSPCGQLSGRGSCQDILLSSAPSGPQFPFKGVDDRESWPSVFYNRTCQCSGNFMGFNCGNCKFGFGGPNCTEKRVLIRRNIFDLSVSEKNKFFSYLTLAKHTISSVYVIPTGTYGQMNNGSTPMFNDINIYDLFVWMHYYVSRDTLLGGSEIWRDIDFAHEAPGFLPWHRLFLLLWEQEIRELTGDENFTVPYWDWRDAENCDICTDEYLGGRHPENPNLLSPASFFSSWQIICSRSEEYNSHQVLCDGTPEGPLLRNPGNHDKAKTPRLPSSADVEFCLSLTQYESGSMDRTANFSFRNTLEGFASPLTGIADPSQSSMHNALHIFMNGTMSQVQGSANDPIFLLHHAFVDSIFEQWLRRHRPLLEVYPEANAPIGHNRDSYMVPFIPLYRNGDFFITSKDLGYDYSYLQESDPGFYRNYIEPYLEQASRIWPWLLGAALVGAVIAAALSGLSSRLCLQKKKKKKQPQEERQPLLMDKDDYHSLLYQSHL

[2] = Cytotoxicity against mouse B16F10 cells assessed as cell viability at 20 ug/ml incubated for 72 hrs by MTT assay; assay type: cell-based, B16-F10; conditions: read-out: Activity
Tyrosinase = target: T2, Tyrosinase (Agaricus bisporus, UniProt O42713); assay: Inhibition of mushroom tyrosinase using L-DOPA as substrate assessed as formation of L-DOPA chrome preincubated for 10 mins followed by addition of substrate measured over 10 mins by […]
T2 sequence (O42713 whole entry): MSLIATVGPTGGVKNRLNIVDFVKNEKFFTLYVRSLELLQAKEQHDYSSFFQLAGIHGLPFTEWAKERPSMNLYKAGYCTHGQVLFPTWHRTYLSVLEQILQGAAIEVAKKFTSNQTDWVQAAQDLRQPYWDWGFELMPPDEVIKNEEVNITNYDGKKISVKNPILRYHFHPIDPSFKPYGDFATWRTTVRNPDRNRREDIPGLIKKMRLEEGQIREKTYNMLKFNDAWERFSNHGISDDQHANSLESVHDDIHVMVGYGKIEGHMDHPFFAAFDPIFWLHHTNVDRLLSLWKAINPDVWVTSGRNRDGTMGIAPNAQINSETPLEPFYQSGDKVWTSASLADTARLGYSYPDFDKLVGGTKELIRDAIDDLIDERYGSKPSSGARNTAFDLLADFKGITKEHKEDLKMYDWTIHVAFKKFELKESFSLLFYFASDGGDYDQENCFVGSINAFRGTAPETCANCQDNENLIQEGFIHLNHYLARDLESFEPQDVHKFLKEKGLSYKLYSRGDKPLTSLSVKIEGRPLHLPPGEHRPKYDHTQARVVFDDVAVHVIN

| Structure (SMILES) | inhibition [1] | IC50 (Tyrosinase) | viability at 72 h, 20 ug/ml [2] |
| --- | --- | --- | --- |
| O=C1OC(c2ccc(/N=N/c3ccc(N4CCOCC4)cc3)cc2)=N/C1=C/c1ccc(Cl)cc1 | 34.4% | 18.9 µM | 61.9% |
| O=C1OC(c2ccc(/N=N/c3ccc(N4CCOCC4)cc3)cc2)=N/C1=C/c1ccc(F)cc1Cl | 32.4% | 16 µM | 60.7% |
| O=C1OC(c2ccc(/N=N/c3ccc(N4CCOCC4)cc3)cc2)=N/C1=C/c1ccccc1 | 40.1% | 17.2 µM | 62.9% |
| O=C1OC(c2ccc(/N=N/c3ccc(N4CCOCC4)cc3)cc2)=N/C1=C/c1cccs1 | 31.2% | 13.7 µM | 56.7% |

Continued, in another order:

| inhibition [1] | IC50 (Tyrosinase) | Structure (SMILES) | viability at 72 h, 20 ug/ml [2] |
| --- | --- | --- | --- |
| 30.7% | 20.3 µM | O=C1OC(c2ccc(/N=N/c3ccc(N4CCOCC4)cc3)cc2)=N/C1=C/c1ccccc1[N+](=O)[O-] | 58.1% |
| 38.8% | 15.8 µM | O=C1OC(c2ccc(/N=N/c3ccc(N4CCOCC4)cc3)cc2)=N/C1=C/c1ccc(F)cc1 | 57.2% |
